Test results as given in PMC12192727, “Strategies to Develop Na,K-ATPase-α4 Inhibitors as Male Contraceptives” (International Journal of Molecular Sciences, 2025).
≈ marks a conversion by molar mass, not a printed value.

Columns and labels:
[1] = Solubility as noted when testing was attempted; assay type: physicochemical
physchem = assay type: physicochemical; conditions: PBS pH 7.4; read-out: Solubility
Procedure: The stock solutions of 11 and 45 were prepared in DMSO at a concentration of 30 mM, and the stock solution of the control compound was prepared in DMSO at a concentration of 30 mM. Progesterone was used as a positive control in the assay. An amount of 10 µL of stock solution of each compound was placed in order into their proper 96-well rack, followed by adding 990 µL of PBS at pH 7.4 into each vial of the capless Solubility Sample plate. This study was performed in duplicate. One stir stick was added to each vial and then sealed using a molded PTDE/SIL 96-Well Plate Cover (Pharmaron, Waltman, MA, USA). The Solubility Sample plate was transferred to the Thermomixer Comfort plate shaker and incubated at RT for 2 h with shaking at 1100 rpm. After 2 h of incubation, stir sticks were removed using a big magnet, and all samples from the Solubility Sample plate were transferred into the filter plate. All the samples were filtered using a vacuum manifold. The filtered samples were diluted with methanol. The soluble fraction (filtrate) was then analyzed by LC-MS/MS, and the compound concentration was determined using 0.3 μM standard solutions prepared from DMSO stocks. The experimental details are reported in the Supporting Information (Table S1). […]
Table S1 . Solubility Results of Test C ompound and Control C ompound in […]
Compound ID Solubility (µM)
Preparation of Stock Solutions: The stock solutions of test compounds were prepared in DMSO at the concentration of 30 mM, and the stock solution of control compound was prepared in DMSO at the concentration of 30 mM.
Progesterone was used as positive control in the assay.
Solubility Determination: 10 µL stock solution of each compound was placed in order into their proper 96-well rack, followed by adding 990 µL of PBS at pH 7.4 into each vial of the cap-less Solubility Sample plate. This study was performed in duplicate. One stir stick was added to each vial and then vials were sealed using a molded PTDE/SIL 96-Well Plate Cover. The Solubility Sample plate was transferred to the Thermomixer Comfort plate shaker and incubated at RT for 2 hours with shaking at 1100 rpm. After 2 hours incubation, stir sticks were removed using a big magnet and all samples from the Solubility Sample plate were transferred into the filter plate. All the samples were filtered by using the Vacuum Manifold. The filtered samples were diluted with methanol. The dilution factor might be changed according to the solubility value and the LC/MS signal response. To prepare 0.3 µM Standards (STD), 30 mM DMSO compound stock solutions were diluted with DMSO to 300 µM and then diluted with methanol to obtain 0.3 µM STDs. Samples were analyzed by LC-MS/MS. All calculations were carried out using Microsoft Excel. The solution filtered was analyzed and quantified against a standard of known concentration in DMSO using LC coupled with Mass spectral peak identification and quantitation. The solubility values of the test compounds were calculated as follow DF means the dilution factor
1. Chromatographic conditions
Apparatus: Triple QuadTM 5500 instrument from AB Inc (Canada) with an ESI interface Column: XSelect Hss T3 2.5µ (2.1×50 mm) Column XP coupled with preguard column Mobile phase: 0.1% formic acid in acetonitrile (A) and 0.1% formic acid in water (B) […]

## C[C@]12CC[C@H]3[C@@H](CC=C4C[C@@H](O)CC[C@@]43C)[C@@H]1CC[C@@H]2n1cc(-c2ccccc2)nn1 [Compound 30, (3S,8R,9S,10R,13S,14S,17S)-10,13-Dimethyl-17-(4-phenyl-1H-1,2,3-triazol-1-yl)-2,3,4,7,8,9,10,11,12,13,14,15,16,17-tetradecahydro-1H-cyclopenta[a]phenanthren-3-ol]
[1]
  Solubility (in words, precluded testing): inadequate solubility

## CC12CCC(=O)C=C1CCCC2c1cn(Cc2ccccc2)nn1 (stereo not drawn) [Compound 39, 5-(1-Benzyl-1H-1,2,3-triazol-4-yl)-4a-methyl-4,4a,5,6,7,8-hexahydronaphthalen-2(3H)-one]
[1]
  Solubility (in words, precluded testing): poor solubility

## CC(=O)[C@H]1CC[C@H]2[C@@H]3CCC4=CC(=O)CC[C@]4(C)[C@H]3CC[C@]12C [Progesterone, reference compound]
physchem
  Solubility: 18.0 µM (≈ 5.66 µg/mL)
